Measured values from patent US20260022142A1, “MACROCYCLIC IMMUNOMODULATORS” (Bristol-Myers Squibb Company, priority 2022, published 2026).
pIC50: −log10 of the molar value. Numbered stars: 1 amine (or outer) side, 2 acyl side, 3 side chain; on linkers, the order of the positions; unused ones are H or OH. Bridge positions count the residues as written; N and C are the ends. Square brackets hold non-standard residues; d marks the D form. Peptide text beside a SMILES is read from it. * marks the point of attachment. ξ: configuration not given here. Bip = N[C@@H](Cc1ccc(-c2ccccc2)cc1)C(=O)O; Phe(3-Me) = Cc1cccc(C[C@H](N)C(=O)O)c1; X19 = O=C([C@@H]1CC(O)CN1[*:1])[*:2]; hArg = N=C(N)NCCCC[C@H](N)C(=O)O; 3Thi = N[C@@H](Cc1ccsc1)C(=O)O; Cha = N[C@@H](CC1CCCCC1)C(=O)O; Thr(3ξ) = CC(O)[C@H](N)C(=O)O; Carboxymethyl = O=C(O)C*; Orn = NCCC[C@H](N)C(=O)O; Aun = NCCCCCCCCCCC(=O)O; Dab = NCC[C@H](N)C(=O)O; AEEA = NCCOCCOCC(=O)O

Target: T1, PD-1/PD-L1 interaction (PE-labeled human PD-L1-Ig binding to Jurkat cell line over-expressing human PD-1) (Homo sapiens, UniProt Q15116)
T1 construct: expressed in transfected cells; host or cells: Jurkat
Test: Jurkat-PD-1 Cell Binding High-Content Screening Assay (CBA)
Format: cell-based
Conditions: Jurkat cell line over-expressing human PD-1; PE-labeled PD-L1-Ig 20 nM final; read-out: Jurkat hPD1-PDL1 IC50
Outline: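 Jurkat cells stably over-expressing human PD-1 were seeded in DMEM with 10% fetal calf serum and pre-incubated with compound for 2 h at 37° C. PE-labeled human PD-L1-Ig was then added at 20 nM final for 1 hour, after which cells were fixed with paraformaldehyde, Hoechst-stained and imaged by high-content microscopy.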

T1 sequence (Q15116 25-288): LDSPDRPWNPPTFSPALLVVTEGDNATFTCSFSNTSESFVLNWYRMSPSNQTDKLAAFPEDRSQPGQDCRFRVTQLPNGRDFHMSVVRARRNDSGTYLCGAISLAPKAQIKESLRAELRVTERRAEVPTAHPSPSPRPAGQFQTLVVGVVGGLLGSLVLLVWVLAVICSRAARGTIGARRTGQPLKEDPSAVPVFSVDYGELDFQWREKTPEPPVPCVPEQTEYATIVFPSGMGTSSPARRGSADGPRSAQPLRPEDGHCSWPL

SMILES | pIC50
Cc1cccc(C[C@@H]2NC(=O)[C@H](CC(=O)O)NC(=O)[C@H](Cc3ccc(OCC(=O)O)cc3)NC(=O)[C@H](CCCCNC(=N)N)NC(=O)CSC[C@@H](C(=O)N[C@@H](CCCN)C(=O)N[C@@H](CO)C(=O)NCCCCCCCCCCC(=O)O)NC(=O)[C@H](C(C)O)NC(=O)[C@H](C(C)C)NC(=O)[C@H](CC3CCCCC3)NC(=O)[C@H](CCN)NC(=O)[C@@H](CC(C)C)NC(=O)[C@H](CCCN)NC(=O)[C@H](C(C)C)NC(=O)[C@H](Cc3ccc(-c4ccccc4)cc3)NC(=O)[C@H](C(C)C)NC2=O)c1 (stereo partly drawn) [Compound 3268] ({CH2CO}-[hArg]Y(Carboxymethyl)D[Phe(3-Me)]V[Bip]V[Orn][dL][Dab][Cha]V[Thr(3ξ)]C[Orn]S[Aun]-OH; thioether N-14) | 8.10
CC(C)C[C@H]1NC(=O)[C@H](CCCN)NC(=O)[C@H](C(C)C)NC(=O)[C@H](Cc2ccc(-c3ccccc3)cc2)NC(=O)[C@H](C(C)C)NC(=O)[C@H](Cc2c[nH]c3ccccc23)NC(=O)[C@H](CC(=O)O)NC(=O)[C@H](Cc2c[nH]cn2)NC(=O)[C@H](CCCCNC(=N)N)NC(=O)CSC[C@@H](C(=O)N[C@@H](CCN)C(=O)NCCCCCCCCCCC(=O)O)NC(=O)[C@H](CCN)NC(=O)[C@H](C(C)C)NC(=O)[C@H](CC2CCCCC2)NC(=O)[C@H](CCN)NC1=O [Compound 3269] ({CH2CO}-[hArg]HDWV[Bip]V[Orn][dL][Dab][Cha]V[Dab]C[Dab][Aun]-OH; thioether N-14) | 7.18
CC(C)C[C@H]1NC(=O)[C@H](CCCN)NC(=O)[C@H](C(C)C)NC(=O)[C@H](Cc2ccc(-c3ccccc3)cc2)NC(=O)[C@H](C(C)C)NC(=O)[C@H](Cc2c[nH]c3ccccc23)NC(=O)[C@H](CC(=O)O)NC(=O)[C@H](Cc2c[nH]cn2)NC(=O)[C@H](CCCCNC(=N)N)NC(=O)CSC[C@@H](C(=O)N[C@@H](CCN)C(=O)NCCCCCCCCCCC(=O)O)NC(=O)[C@H](CCCCN)NC(=O)[C@H](C(C)C)NC(=O)[C@H](CC2CCCCC2)NC(=O)[C@H](CCN)NC1=O [Compound 3270] ({CH2CO}-[hArg]HDWV[Bip]V[Orn][dL][Dab][Cha]VKC[Dab][Aun]-OH; thioether N-14) | 7.49
CC(C)C[C@H]1NC(=O)[C@H](CCCN)NC(=O)[C@H](C(C)C)NC(=O)[C@H](Cc2ccc(-c3ccccc3)cc2)NC(=O)[C@H](C(C)C)NC(=O)[C@H](Cc2c[nH]c3ccccc23)NC(=O)[C@H](CC(=O)O)NC(=O)[C@H](Cc2c[nH]cn2)NC(=O)[C@H](CCCCNC(=N)N)NC(=O)CSC[C@@H](C(=O)N[C@@H](CCN)C(=O)NCCCCCCCCCCC(=O)O)NC(=O)[C@H](CO)NC(=O)[C@H](C(C)C)NC(=O)[C@H](CC2CCCCC2)NC(=O)[C@H](CCN)NC1=O [Compound 3271] ({CH2CO}-[hArg]HDWV[Bip]V[Orn][dL][Dab][Cha]VSC[Dab][Aun]-OH; thioether N-14) | 7.50
CC(C)C[C@H]1NC(=O)[C@H](CCCN)NC(=O)[C@H](C(C)C)NC(=O)[C@H](Cc2ccc(-c3ccccc3)cc2)NC(=O)[C@H](C(C)C)NC(=O)[C@H](Cc2c[nH]c3ccccc23)NC(=O)[C@H](CC(=O)O)NC(=O)[C@H](Cc2c[nH]cn2)NC(=O)[C@H](CCCNC(=N)N)NC(=O)CSC[C@@H](C(=O)N[C@@H](CCN)C(=O)NCCCCCCCCCCC(=O)O)NC(=O)[C@H](CO)NC(=O)[C@H](C(C)C)NC(=O)[C@H](CC2CCCCC2)NC(=O)[C@H](CCN)NC1=O [Compound 3272] ({CH2CO}-RHDWV[Bip]V[Orn][dL][Dab][Cha]VSC[Dab][Aun]-OH; thioether N-14) | 7.53
CC(C)C[C@H]1NC(=O)[C@H](CCCN)NC(=O)[C@H](C(C)C)NC(=O)[C@H](Cc2ccc(-c3ccccc3)cc2)NC(=O)[C@H](C(C)C)NC(=O)[C@H](Cc2c[nH]c3ccccc23)NC(=O)[C@H](CC(=O)O)NC(=O)[C@H](Cc2c[nH]cn2)NC(=O)[C@H](CCCCNC(=N)N)NC(=O)CSC[C@@H](C(=O)N[C@@H](CCN)C(=O)NCCCCCCCCCCC(=O)O)NC(=O)[C@H](CCC(N)=O)NC(=O)[C@H](C(C)C)NC(=O)[C@H](CC2CCCCC2)NC(=O)[C@H](CCN)NC1=O [Compound 3273] ({CH2CO}-[hArg]HDWV[Bip]V[Orn][dL][Dab][Cha]VQC[Dab][Aun]-OH; thioether N-14) | 7.56
CC(C)C[C@H]1NC(=O)[C@H](CCCN)NC(=O)[C@H](C(C)C)NC(=O)[C@H](Cc2ccc(-c3ccccc3)cc2)NC(=O)[C@H](C(C)C)NC(=O)[C@H](Cc2c[nH]c3ccccc23)NC(=O)[C@H](CC(=O)O)NC(=O)[C@H](Cc2c[nH]cn2)NC(=O)[C@H](CCCCNC(=N)N)NC(=O)CSC[C@@H](C(=O)N[C@@H](CCN)C(=O)NCCCCCCCCCCC(=O)O)NC(=O)[C@@H]2CC(O)CN2C(=O)[C@H](C(C)C)NC(=O)[C@H](CC2CCCCC2)NC(=O)[C@H](CCN)NC1=O (stereo partly drawn) [Compound 3274] ({CH2CO}-[hArg]HDWV[Bip]V[Orn][dL][Dab][Cha]V[X19]C[Dab][Aun]-OH; thioether N-14) | 6.39
CC(C)C[C@H]1NC(=O)[C@H](CCCN)NC(=O)[C@H](C(C)C)NC(=O)[C@H](Cc2ccc(-c3ccccc3)cc2)NC(=O)[C@H](C(C)C)NC(=O)[C@H](Cc2c[nH]c3ccccc23)NC(=O)[C@H](CC(=O)O)NC(=O)[C@H](Cc2c[nH]cn2)NC(=O)[C@H](CCCNC(=N)N)NC(=O)CSC[C@@H](C(=O)N[C@@H](CCN)C(=O)NCCCCCCCCCCC(=O)O)NC(=O)[C@@H]2CC(O)CN2C(=O)[C@H](C(C)C)NC(=O)[C@H](CC2CCCCC2)NC(=O)[C@H](CCN)NC1=O (stereo partly drawn) [Compound 3275] ({CH2CO}-RHDWV[Bip]V[Orn][dL][Dab][Cha]V[X19]C[Dab][Aun]-OH; thioether N-14) | 6.39
CC(C)C[C@H]1NC(=O)[C@H](CCN)NC(=O)[C@H](C(C)C)NC(=O)[C@H](Cc2ccc(-c3ccccc3)cc2)NC(=O)[C@H](C(C)C)NC(=O)[C@H](Cc2c[nH]c3ccccc23)NC(=O)[C@H](CC(=O)O)NC(=O)[C@H](Cc2ccc(OCC(=O)O)cc2)NC(=O)[C@H](CCCCNC(=N)N)NC(=O)CSC[C@@H](C(=O)N[C@H](CC(N)=O)C(=O)NCCCCCCCCCCC(=O)O)NC(=O)[C@H](CCCN)NC(=O)[C@H](C(C)C)NC(=O)[C@H](CC2CCCCC2)NC(=O)[C@H](CCN)NC1=O [Compound 3277] ({CH2CO}-[hArg]Y(Carboxymethyl)DWV[Bip]V[Dab][dL][Dab][Cha]V[Orn]C[dN][Aun]-OH; thioether N-14) | 7.98
CC(C)C[C@H]1NC(=O)[C@H](CCCN)NC(=O)[C@H](C(C)C)NC(=O)[C@H](Cc2ccc(-c3ccccc3)cc2)NC(=O)[C@H](C(C)C)NC(=O)[C@H](Cc2c[nH]c3ccccc23)NC(=O)[C@H](CC(=O)O)NC(=O)[C@H](Cc2ccc(OCC(=O)O)cc2)NC(=O)[C@H](CCCCNC(=N)N)NC(=O)CSC[C@@H](C(=O)N[C@H](CC(N)=O)C(=O)NCCCCCCCCCCC(=O)O)NC(=O)[C@H](CCCN)NC(=O)[C@H](C(C)C)NC(=O)[C@H](CC2CCCCC2)NC(=O)[C@H](CCN)NC1=O [Compound 3278] ({CH2CO}-[hArg]Y(Carboxymethyl)DWV[Bip]V[Orn][dL][Dab][Cha]V[Orn]C[dN][Aun]-OH; thioether N-14) | 8.06
CC(C)[C@@H]1NC(=O)[C@H](CC2CCCCC2)NC(=O)[C@H](CCN)NC(=O)[C@@H](C)NC(=O)[C@H](CCN)NC(=O)[C@H](C(C)C)NC(=O)[C@H](Cc2ccc(-c3ccccc3)cc2)NC(=O)[C@H](C(C)C)NC(=O)[C@H](Cc2c[nH]c3ccccc23)NC(=O)[C@H](CC(=O)O)NC(=O)[C@H](Cc2ccc(OCC(=O)O)cc2)NC(=O)[C@H](CCCCNC(=N)N)NC(=O)CSC[C@@H](C(=O)N[C@@H](CCN)C(=O)NCCOCCOCC(=O)NCCCCCCCCCCC(=O)O)NC(=O)[C@H](CCCN)NC1=O [Compound 3279] ({CH2CO}-[hArg]Y(Carboxymethyl)DWV[Bip]V[Dab][dA][Dab][Cha]V[Orn]C[Dab][AEEA][Aun]-OH; thioether N-14) | 7.33
CC(C)C[C@H]1NC(=O)[C@H](CCN)NC(=O)[C@H](C(C)C)NC(=O)[C@H](Cc2ccc(-c3ccccc3)cc2)NC(=O)[C@H](C(C)C)NC(=O)[C@H](Cc2c[nH]c3ccccc23)NC(=O)[C@H](CC(=O)O)NC(=O)[C@H](Cc2ccc(OCC(=O)O)cc2)NC(=O)[C@H](Cc2ccsc2)NC(=O)CSC[C@@H](C(=O)NCCOCCOCC(=O)NCCCCCCCCCCC(=O)O)NC(=O)[C@H](C(C)O)NC(=O)[C@H](C(C)C)NC(=O)[C@H](CC2CCCCC2)NC(=O)[C@H](CCN)NC1=O (stereo partly drawn) [Compound 3280] ({CH2CO}-[3Thi]Y(Carboxymethyl)DWV[Bip]V[Dab][dL][Dab][Cha]V[Thr(3ξ)]C[AEEA][Aun]-OH; thioether N-14) | 7.37
CC(C)C[C@H]1NC(=O)[C@H](CCN)NC(=O)[C@H](C(C)C)NC(=O)[C@H](Cc2ccc(-c3ccccc3)cc2)NC(=O)[C@H](C(C)C)NC(=O)[C@H](Cc2c[nH]c3ccccc23)NC(=O)[C@H](CC(=O)O)NC(=O)[C@H](Cc2ccc(OCC(=O)O)cc2)NC(=O)[C@H](Cc2ccsc2)NC(=O)CSC[C@@H](C(=O)N[C@@H](CCCN)C(=O)NCCCCCCCCCCC(=O)O)NC(=O)[C@H](C(C)O)NC(=O)[C@H](C(C)C)NC(=O)[C@H](CC2CCCCC2)NC(=O)[C@H](CCN)NC1=O (stereo partly drawn) [Compound 3281] ({CH2CO}-[3Thi]Y(Carboxymethyl)DWV[Bip]V[Dab][dL][Dab][Cha]V[Thr(3ξ)]C[Orn][Aun]-OH; thioether N-14) | 7.01
CC(C)C[C@H]1NC(=O)[C@H](CCN)NC(=O)[C@H](C(C)C)NC(=O)[C@H](Cc2ccc(-c3ccccc3)cc2)NC(=O)[C@H](C(C)C)NC(=O)[C@H](Cc2c[nH]c3ccccc23)NC(=O)[C@H](CC(=O)O)NC(=O)[C@H](Cc2ccc(OCC(=O)O)cc2)NC(=O)[C@H](Cc2ccsc2)NC(=O)CSC[C@@H](C(=O)N[C@@H](CCN)C(=O)NCCCCCCCCCCC(=O)O)NC(=O)[C@H](C(C)O)NC(=O)[C@H](C(C)C)NC(=O)[C@H](CC2CCCCC2)NC(=O)[C@H](CCN)NC1=O (stereo partly drawn) [Compound 3282] ({CH2CO}-[3Thi]Y(Carboxymethyl)DWV[Bip]V[Dab][dL][Dab][Cha]V[Thr(3ξ)]C[Dab][Aun]-OH; thioether N-14) | 6.92
